In one experiment the test system is HCT116 KO-MTAP cells. As to the kind of experiment: PRMT5 cell SDMA assay, MTAP KO cells. The settings on record: Homo sapiens, HCT-116; HCT116 MTAP KO, 48 hours; read-out: Cell SDMA IC50 (μM) (MTAP KO). It counts as cell-based.
A further experiment concerns HCT116 WT cells. The experiment in a line: PRMT5 cell SDMA assay, MTAP WT cells. It counts as cell-based. The settings on record: Homo sapiens, HCT-116; HCT116 MTAP WT, 48 hours; read-out: Cell SDMA IC50 (μM) (MTAP WT).

Turning to `COc1cc(F)cc2c1[C@]1(CCN(C)C1=O)N(Cc1cc3nc(N)c(F)cc3[nH]1)C2=O` [Example 24, (S)-2-((5-Amino-6-fluoro-1H-pyrrolo[3,2-b]pyridin-2-yl)methyl)-5-fluoro-7-methoxy-1′-methylspiro[isoindoline-1,3′-pyrrolidine]-2′,3-dione], the 50% inhibitory concentration (IC50) worked out at 0.032 µM in the experiment on HCT116 KO-MTAP cells and 1.2 µM in the experiment with HCT116 WT cells.
`Cc1cc(F)cc2c1[C@]1(CCN(C)C1=O)N(Cc1cc3nc(N)c(F)cc3[nH]1)C2=O` [Example 23, (S)-2-((5-Amino-6-fluoro-1H-pyrrolo[3,2-b]pyridin-2-yl)methyl)-5-fluoro-1′,7-dimethylspiro[isoindoline-1,3′-pyrrolidine]-2′,3-dione]: the results for the IC50 in the experiment with HCT116 KO-MTAP cells and in the experiment on HCT116 WT cells were 0.16 µM and 12 µM, respectively.
Take `Nc1nc2cc(CN3C(=O)c4cc(F)ccc4[C@]34CCN(CC3(CF)CC3)C4=O)[nH]c2cc1F` [Example 9, (S)-2-((5-Amino-6-fluoro-1H-pyrrolo[3,2-b]pyridin-2-yl)methyl)-5-fluoro-1′-((1-(fluoromethyl)cyclopropyl)methyl)spiro[isoindoline-1,3′-pyrrolidine]-2′,3-dione]: the IC50 in the experiment with HCT116 KO-MTAP cells amounted to 0.015 µM; in the experiment on HCT116 WT cells, 0.53 µM.
The like results for `Cc1ncsc1CCN1CC[C@@]2(C1=O)c1ccc(F)cc1C(=O)N2Cc1cc2nc(N)c(F)cc2[nH]1` [Example 18, (S)-2-((5-Amino-6-fluoro-1H-pyrrolo[3,2-b]pyridin-2-yl)methyl)-5-fluoro-1′-(2-(4-methylthiazol-5-yl)ethyl)spiro[isoindoline-1,3′-pyrrolidine]-2′,3-dione] were, in that order, 0.0066 µM and 0.37 µM.
As for `C[C@H]1C[C@@]2(C(=O)N1C)c1ccc(F)cc1C(=O)N2Cc1cc2nc(N)c(F)cc2[nH]1` (single isomer, unassigned) [Example 29], the IC50 was 0.018 µM in the experiment on HCT116 KO-MTAP cells and 0.81 µM in the experiment with HCT116 WT cells.
The corresponding values for `Nc1nc2cc(CN3C(=O)c4cc(F)ccc4[C@]34CCN(CC#CC3CC3)C4=O)[nH]c2cc1F` [Example 20, (S)-2-((5-Amino-6-fluoro-1H-pyrrolo[3,2-b]pyridin-2-yl)methyl)-1′-(3-cyclopropylprop-2-yn-1-yl)-5-fluorospiro[isoindoline-1,3′-pyrrolidine]-2′,3-dione] are 0.0029 µM and 0.16 µM.
The like results for `Cn1cc(C#CCN2CC[C@@]3(C2=O)c2ccc(F)cc2C(=O)N3Cc2cc3nc(N)c(F)cc3[nH]2)cn1` [Example 4, (S)-2-((5-Amino-6-fluoro-1H-pyrrolo[3,2-b]pyridin-2-yl)methyl)-5-fluoro-1′-(3-(1-methyl-1H-pyrazol-4-yl)prop-2-yn-1-yl)spiro[isoindoline-1,3′-pyrrolidine]-2′,3-dione] were, in that order, 0.0094 µM and 0.19 µM.
Take `Nc1nc2cc(CN3C(=O)c4cc(F)ccc4[C@]34CCN(Cc3nc5ccccc5o3)C4=O)[nH]c2cc1F` [Example 16, (S)-2-((5-Amino-6-fluoro-1H-pyrrolo[3,2-b]pyridin-2-yl)methyl)-1′-(benzo[d]oxazol-2-ylmethyl)-5-fluorospiro[isoindoline-1,3′-pyrrolidine]-2′,3-dione]: the results for the IC50 with HCT116 KO-MTAP cells and in the experiment with HCT116 WT cells were 0.0051 µM and 0.23 µM, respectively.
`Nc1nc2cc(CN3C(=O)c4cnccc4[C@]34CCN(Cc3ccc(F)cc3)C4=O)[nH]c2cc1F` (single isomer, unassigned) [Example 22]: the IC50 is 0.011 µM with HCT116 KO-MTAP cells and 0.51 µM in the experiment on HCT116 WT cells.
`Nc1nc2cc(CN3C(=O)c4cc(F)ccc4[C@]34CCN(Cc3cccc(-n5nccn5)c3)C4=O)[nH]c2cc1F` [Example 6, (S)-1′-(3-(2H-1,2,3-Triazol-2-yl)benzyl)-2-((5-amino-6-fluoro-1H-pyrrolo[3,2-b]pyridin-2-yl)methyl)-5-fluorospiro[isoindoline-1,3′-pyrrolidine]-2′,3-dione]: the IC50 with HCT116 KO-MTAP cells was found to be 0.0017 µM; with HCT116 WT cells, 0.054 µM.
The corresponding values for `Nc1nc2cc(CN3C(=O)c4cc(F)ccc4[C@]34CCN(Cc3ccno3)C4=O)[nH]c2cc1F` [Example 13, (S)-2-((5-Amino-6-fluoro-1H-pyrrolo[3,2-b]pyridin-2-yl)methyl)-5-fluoro-1′-(isoxazol-5-ylmethyl)spiro[isoindoline-1,3′-pyrrolidine]-2′,3-dione] are 0.0084 µM and 0.34 µM.
The like results for `Nc1nc2cc(CN3C(=O)c4cc(F)ccc4[C@]34CCN(CCOC(F)F)C4=O)[nH]c2cc1F` [Example 11, (S)-2-((5-Amino-6-fluoro-1H-pyrrolo[3,2-b]pyridin-2-yl)methyl)-1′-(2-(difluoromethoxy)ethyl)-5-fluorospiro[isoindoline-1,3′-pyrrolidine]-2′,3-dione] were, in that order, 0.02 µM and 0.81 µM.
The like results for `Nc1nc2cc(CN3C(=O)c4cc(F)ccc4[C@]34CCN(Cc3cc(F)ccc3F)C4=O)[nH]c2cc1F` [Example 7, (S)-2-((5-Amino-6-fluoro-1H-pyrrolo[3,2-b]pyridin-2-yl)methyl)-1′-(2,5-difluorobenzyl)-5-fluorospiro[isoindoline-1,3′-pyrrolidine]-2′,3-dione] were, in that order, 0.0017 µM and 0.036 µM.
In the case of `N#Cc1ccc(CN2CC[C@@]3(C2=O)c2ccc(F)cc2C(=O)N3Cc2cc3nc(N)c(F)cc3[nH]2)cc1F` [Example 5, (S)-4-((2-((5-Amino-6-fluoro-1H-pyrrolo[3,2-b]pyridin-2-yl)methyl)-5-fluoro-2′,3-dioxospiro[isoindoline-1,3′-pyrrolidin]-1′-yl)methyl)-2-fluorobenzonitrile], the concentration for half-maximal inhibition (IC50) in the experiment with HCT116 KO-MTAP cells was determined as 0.0057 µM; in the experiment on HCT116 WT cells it was 0.17 µM.
Regarding `Nc1nc2cc(CN3C(=O)c4cc(F)ccc4[C@]34CCN(Cc3cc(C(F)(F)F)cnn3)C4=O)[nH]c2cc1F` [Example 14, (S)-2-((5-Amino-6-fluoro-1H-pyrrolo[3,2-b]pyridin-2-yl)methyl)-5-fluoro-1′-((5-(trifluoromethyl)pyridazin-3-yl)methyl)spiro[isoindoline-1,3′-pyrrolidine]-2′,3-dione], the half-maximal inhibitory concentration (IC50) amounted to 0.006 µM with HCT116 KO-MTAP cells and 0.088 µM with HCT116 WT cells.
Turning to `Nc1nc2cc(CN3C(=O)c4c(Cl)cccc4[C@]34CCN(Cc3ccc(F)cc3)C4=O)[nH]c2cc1F` [Example 21, (S)-2-((5-Amino-6-fluoro-1H-pyrrolo[3,2-b]pyridin-2-yl)methyl)-4-chloro-1′-(4-fluorobenzyl)spiro[isoindoline-1,3′-pyrrolidine]-2′,3-dione], the half-maximal inhibitory concentration (IC50) in the experiment on HCT116 KO-MTAP cells was 0.086 µM; with HCT116 WT cells, 3.2 µM.
As to `C[C@@H](N1CC[C@@]2(C1=O)c1ccc(F)cc1C(=O)N2Cc1cc2nc(N)c(F)cc2[nH]1)C1(C)CC1` (relative stereo) [Example 19, (S)-2-((5-Amino-6-fluoro-1H-pyrrolo[3,2-b]pyridin-2-yl)methyl)-5-fluoro-1′-((R*)-1-(1-methylcyclopropyl)ethyl)spiro[isoindoline-1,3′-pyrrolidine]-2′,3-dione], the 50% inhibitory concentration (IC50) in the experiment on HCT116 KO-MTAP cells is 0.032 µM; in the experiment on HCT116 WT cells, 0.86 µM.
With `Cn1ncc2cc(CN3CC[C@@]4(C3=O)c3ccc(F)cc3C(=O)N4Cc3cc4nc(N)c(F)cc4[nH]3)ccc21` [Example 15, (S)-2-((5-Amino-6-fluoro-1H-pyrrolo[3,2-b]pyridin-2-yl)methyl)-5-fluoro-1′-((1-methyl-1H-indazol-5-yl)methyl)spiro[isoindoline-1,3′-pyrrolidine]-2′,3-dione], the IC50 stood at 0.0036 µM in the experiment with HCT116 KO-MTAP cells and 0.12 µM with HCT116 WT cells.

As a reminder, the IC50 is the concentration at which inhibition is half-maximal.

These data come from patent publication US11939344B2, “Spirocyclic compounds” (ASTRAZENECA AB, priority 2021, dated 2024).
